Assay results from publication PMC12925725, “A potent nonapeptide inhibitor for the CXCL12/HMGB1 heterocomplex: A computational and experimental approach” (Computational and Structural Biotechnology Journal, 2025).
Values belong to the molecule of their own block, whether it stands above or below them.

Legend:
human monocytes = assay: Peptide toxicity on human monocytes (AnnexinV-FITC / propidium iodide, flow cytometry); type: cell-based; conditions: 1 μM or 10 μM, 2 or 4 hours
Protocol: (§1) After incubation, cells were stained using AnnexinV-FITC and propidium iodide following the manufacturer’s instructions, and cell viability was analyzed by ﬂow cytometry in comparison to the untreated control.

HMGB1-BoxB [1] = target: T1, HMGB1-BoxB (Homo sapiens, UniProt P09429); assay: Microscale thermophoresis (MST) binding to HMGB1-BoxB; conditions: 10 nM His-tag RED-tris-NTA labelled protein, PBS-T 0.05 % Tween 20, at least 40 min room temperature, 25 °C
T1 construct: His-tagged HMGB1-BoxB, HMGB1-BoxA, and full length HMGB1 proteins were produced at the Protein Facility; made in house
T1 sequence (P09429 95-163 limits assumed): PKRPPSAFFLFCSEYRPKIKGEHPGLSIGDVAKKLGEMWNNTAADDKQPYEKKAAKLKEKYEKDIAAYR
Protocol: (§2) His-tagged HMGB1-BoxB, HMGB1-BoxA, and full length HMGB1 proteins were produced at the Protein Facility of the Institute for Research in Biomedicine as previously described, [17], and stored in phosphate-buffered saline (PBS; product No. D8537, Sigma Aldrich, Saint Louis, USA).
(§3) Target proteins were fluorescently-labeled using the specific His-Tag Labeling Kit RED-tris-NTA 2nd Generation of NanoTemper Technologies (Product No. MO-L018), according to manufacturer instructions. A fixed 10 nM concentration of labeled target protein was mixed with sixteen 1:1 serial dilutions of the ligand peptide (see Supplementary Materials, Table S4 for the details about the concentration ranges used for the peptides). Both protein and peptide were dissolved in PBS-T buffer (0.05 % Tween™ 20, NanoTemper Technologies), and incubated for at least 40 min at room temperature. […] Finally, the data were processed by employing the dedicated MO.Affinity Analysis software v2.3 (NanoTemper Technologies GmbH, München, Germany) and the Kd values were determined based on concentration-dependent changes in normalized fluorescence (Fnorm), while the figures were generated using GraphPad Prism software v8.0.2 (GraphPad, Boston, USA). […]

[2] = system: murine CXCR4 + 300.19 PreB cell line; assay: Peptide toxicity on murine CXCR4+ 300.19 PreB cells (AnnexinV-FITC / propidium iodide, flow cytometry); type: cell-based; conditions: 1 μM or 10 μM, 2 or 4 hours
Protocol: as §1

[3] = target: T2, CXCL12/HMGB1 heterocomplex (Homo sapiens, UniProt P09429); assay: In vitro chemotaxis of human monocytes in response to the CXCL12/HMGB1 heterocomplex (Boyden chamber); type: cell-based; conditions: 1 nM CXCL12 + 300 nM HMGB1, peptide 0.1-10 μM, 90 min, four independent experiments, read-out: IC50, inhibition of monocyte migration in response to the CXCL12/HMGB1 heterocomplex
T2 construct: His-tagged HMGB1-BoxB, HMGB1-BoxA, and full length HMGB1 proteins were produced; His-tag; made in house
T2 sequence (P09429 1-215): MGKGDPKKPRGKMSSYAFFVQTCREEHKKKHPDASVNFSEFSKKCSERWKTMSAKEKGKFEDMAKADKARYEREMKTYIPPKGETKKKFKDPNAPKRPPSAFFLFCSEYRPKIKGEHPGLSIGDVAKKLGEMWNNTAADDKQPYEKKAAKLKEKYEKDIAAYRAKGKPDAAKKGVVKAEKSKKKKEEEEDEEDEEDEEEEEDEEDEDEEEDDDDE
Protocol: The murine 300.19 PreB cell line, stably transfected with the human CXCR4 [47], was cultured under standard culture conditions (5 % CO2, […], 37 °C) in RPMI-1640, supplemented with 10 % Fetal Bovine Serum, 1x non-essential amino acids, 1 mM Sodium pyruvate, 20 mM GlutaMAX, 50 μM β-Mercaptoethanol, 50 U/mL Penicillin and 50 μg/mL Streptomycin (GIBCO). Human monocytes were freshly isolated from buffy-coats obtained by spontaneous donation from healthy individuals (Central Laboratory of Swiss Red Cross, Basel, Switzerland, and Centro Trasfusionale Lugano, Switzerland, Canton Ticino Ethical Committee approval CE3428), and isolated by positive selection using CD14 microbeads (Miltenyi Biotec), as previously described.
In vitro cell migration of CXCR4 + murine 300.19 PreB cells and of freshly isolated human monocytes was performed using Boyden chambers equipped with 5 μm pore membranes, as previously described. Briefly, cells were diluted at 10^6 cell/mL in RPMI 1640, supplemented with 20 mM Hepes, pH 7.4, and 1 % pasteurized plasma protein solution, and allowed to migrate for 90 min in response to different stimuli under standard conditions (5 % CO2, […], 37 °C). CXCL12 was used at 1 nM, 10 nM or 100 nM. The CXCL12/HMGB1 heterocomplex was formed by combining 1 nM CXCL12 with 300 nM HMGB1.

HMGB1-BoxA [4] = target: T3, HMGB1-BoxA (Homo sapiens, UniProt P09429); assay: Microscale thermophoresis (MST) binding to HMGB1-BoxA; conditions: 10 nM labelled protein, PBS-T 0.05 % Tween 20, at least 40 min room temperature, 25 °C
T3 construct: His-tagged HMGB1-BoxB, HMGB1-BoxA, and full length HMGB1 proteins were produced at the Protein Facility; made in house
T3 sequence (P09429 9-79 limits assumed): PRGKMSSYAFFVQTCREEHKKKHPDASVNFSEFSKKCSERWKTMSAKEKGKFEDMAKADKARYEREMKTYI
Protocol: as §2, §3

Solubility in PBS buffer = type: physicochemical; conditions: compared with HBP08–2
HMGB1-BoxB [5] = assay: MST; 10 nM target protein labelled on its His tag (RED-tris-NTA) mixed with sixteen 1:1 serial dilutions of the peptide; PBS-T (0.05 % Tween 20); incubated at least 40 min at room temperature; 25 °C; Monolith NT.115 Pico, excitation 20 %, MST power 40 %
HMGB1-BoxA [6] = target: T4, HMGB1-BoxA (RED-tris-NTA dye on the His tag (His-Tag Labeling Kit RED-tris-NTA 2nd Generation) in the MST); assay: as above; conditions: both partners purified
T4 chain: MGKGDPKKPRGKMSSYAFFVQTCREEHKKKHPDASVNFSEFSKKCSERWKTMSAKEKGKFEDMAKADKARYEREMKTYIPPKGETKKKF

[7] = target: T5, High Mobility Group Box 1 (HMGB1), full length (UniProt P09429 1-215, RED-tris-NTA dye on the His tag (His-Tag Labeling Kit RED-tris-NTA 2nd Generation) in the MST); assay: as above; conditions: both partners purified
T5 construct: HMGB1, full length; also called recombinant HMGB1; source: produced at the Protein Facility of the Institute for Research in Biomedicine as previously described
T5 sequence (looked up): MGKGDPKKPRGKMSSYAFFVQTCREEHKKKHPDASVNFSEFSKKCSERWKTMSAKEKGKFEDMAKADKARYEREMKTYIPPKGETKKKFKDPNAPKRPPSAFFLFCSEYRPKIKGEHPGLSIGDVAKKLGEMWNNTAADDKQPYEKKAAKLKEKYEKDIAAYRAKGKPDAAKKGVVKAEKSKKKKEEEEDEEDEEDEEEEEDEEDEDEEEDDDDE

- Kd (HMGB1-BoxB [1]): 11.3 ± 2.3 nM
- IC50 [3]: 3.31 µM
- Kd (HMGB1-BoxA [4]): 4.2 ± 0.4 µM
Molecule: CC[C@H](C)[C@H](NC(=O)[C@H](Cc1c[nH]c2ccccc12)NC(=O)[C@H](CCSC)NC(=O)[C@H](CCC(N)=O)NC(=O)[C@H](Cc1ccc(O)cc1)NC(=O)[C@H](Cc1c[nH]cn1)NC(=O)[C@H](CCCNC(=N)N)NC(=O)[C@@H]1CCCN1)C(=O)N[C@@H](Cc1c[nH]cn1)C(=O)O [HBP08–2]
- toxicity on human monocytes (human monocytes): did not exhibit toxicity
- toxicity on murine CXCR4+ 300.19 PreB cells [2]: did not exhibit toxicity

- Kd (HMGB1-BoxB [5]): 11.3 nM
- Kd (HMGB1-BoxA [6]): 4.2 ± 0.4 µM
- Kd [7]: 28.1 ± 7 nM
B1: HBP08–2 (peptide)
peptide: PRHYQMWIH
notes: Reconstituted in DMSO; also called G1P + E5Q; source: synthetic peptide, synthetized by Proteogenix (without TFA), purity about 99 %

Continued, molecule first:

Molecule: CC[C@H](C)[C@H](NC(=O)[C@H](Cc1c[nH]c2ccccc12)NC(=O)[C@H](CCSC)NC(=O)[C@H](CCSC)NC(=O)[C@H](Cc1ccc(O)cc1)NC(=O)[C@H](Cc1c[nH]cn1)NC(=O)[C@H](CCCNC(=N)N)NC(=O)[C@@H]1CCCN1)C(=O)N[C@@H](Cc1c[nH]cn1)C(=O)O [HBP08–3]
- Kd (HMGB1-BoxB [1]): 15.3 ± 1.9 nM
- solubility in PBS buffer (Solubility in PBS buffer): lower solubility

Molecule: PRHYMMWIH [HBP08–3]
- Kd (HMGB1-BoxB [5]): 15.3 nM
